The text below walks through data of paper PMC11844072, “Novel 5,6-dichlorobenzimidazole derivatives as dual BRAFWT and BRAFV600E inhibitors: design, synthesis, anti-cancer activity and molecular dynamics simulations” (BMC Chemistry, 2025).

The target of one test is T1, BRAFWT (Homo sapiens, UniProt P15056).
T1 construct: purchased BPS Biosciences 78316
Kind of test: BRAFWT kinase assay kit (Kinase-Glo Max luminescence). The class given is biochemical. Conditions: mean of two independent experiments ± SD; for inhibition at 10 µM: BRAFwt. The protocol: The inhibitory activities of 10a–p on BRAFWT was examined utilizing BRAFWT assay kit (BPS Biosciences—San Diego—CA—US) (For further information see Additional file A).
4. Biochemical kinase assays
The inhibitory activity against different kinases was determined using kinase kits (BRAF WT […]
Glo Max luminescence kinase assay kit (Promega).
The assay was carried out according to the protocol provided by the manufacturer. A stock solution of the synthesized derivatives in 100% DMSO was prepared. Subsequently, the compounds were diluted to 10% DMSO.
A master mixture was prepared according to the number of wells. For BRAF assay each well include 6 μl of 5x Kinase Buffer 1 + 1 μl of ATP (500 μM) + 10 μl of 5X Raf substrate + 8 μl of distilled water. 1x Kinase buffer 1 was prepared by mixing 600 μl of 5x Kinase Buffer 1 with 2400 μl water to give 3 mL. Kinases were thawed on ice and were diluted with 1x Kinase Buffer 1.
To start the biochemical reaction, 25 µL of the master mixture was added to each well in 96 well plate. 5 µL of 10% DMSO was added to positive control wells and blank wells. 5 µL of diluted inhibitor was added to each well labelled with the test inhibitor so that the final concentration of DMSO is 1% in all reactions. Then 20 µL of (2.5 ng/μl) in case of BRAF WT and (1 ng / μl) in case of VEGFR-2 and FGFR-1 in 1x kinase buffer was added to positive control wells and wells labelled with the inhibitor, while 20 µL 1x kinase buffer 1 was added to the blank wells.
The plate was incubated at 30 °C for 45 min. Subsequently, 50 μl of Kinase-Glo Max luminescence reagent was added to each well and the plate was covered with aluminum foil and incubated at room temperature for 15 min. Finally, the luminescence was recorded using multimode microplate reader. Kinase activity assays were performed in duplicate at each concentration.
The luminescence data were analyzed as follows. The difference between luminescence intensities in the absence of kinase (Lu t) and in the presence of kinase (Lu c) was defined as 100 % […]
calculated as: % activity = {(Lu t - Lu)/(Lut - Luc)} ×100%. The concentration of the test compounds required to reduce the kinase activity by 50% was determined from dose-response curves and […]
In general terms: In Kinase-Glo more light means more ATP remaining.

The subject of another test is SK-OV-3. Kind of test: NCI 60 single concentration growth inhibition. Conditions: Homo sapiens, SK-OV-3, Ovarian cancer, read-out: GI%. The class given is cell-based, human. Here is the method: (§1) The synthesized dichlorobenzimidazoles 10a–p were assayed for their influence on divers cancer cell lines according to the method presented in the Additional file A.
(§2) 5. Screening of cytotoxic activity against a panel of sixty human tumor cell lines
(§3) The selected compounds by NCI were evaluated for their anticancer activity in a two-stage process. First, these compounds were screened against the full NCI 60 cell lines panel at a single high dose of 10 µM. Then, the output from the single dose screen is reported as a mean graph. […]
(§4) at five different minimal concentrations.
(§5) Assay protocol. The human tumor cell lines of the cancer screening panel are grown in RPMI 1640 medium containing 5% fetal bovine serum and 2 mM L-glutamine. For a typical screening experiment, cells are inoculated into 96 well microtiter plates in 100 µL at plating densities ranging from 5000 to 40,000 cells/well depending on the doubling time of individual cell lines. After cell inoculation, the microtiter plates are incubated at 37 °C, 5% CO 2, 95% air and 100% relative humidity for 24 h prior to addition of the experimental drugs.
(§6) After 24 h, two plates of each cell line are fixed in situ with TCA, to represent a measurement of the cell population for each cell line at the time of drug addition (Tz). The experimental drugs are solubilized in dimethyl sulfoxide at 400-fold the desired final maximum test concentration and stored frozen prior to use. At the time of drug addition, an aliquot of frozen concentrate is thawed and diluted to twice the desired final maximum test concentration with complete medium containing 50 µg/mL gentamicin. Additional four, 10-fold or ½ log serial dilutions are made to provide a total of five drug concentrations plus control.
(§7) Aliquots of […] of these different drug dilutions are added to the appropriate microtiter wells already containing […] of medium, resulting in the required final drug concentrations.
(§8) Following drug addition, the plates are incubated for an additional 48 h at 37 °C, 5% CO 2, 95% air, and 100% relative humidity. For adherent cells, the assay is terminated by the addition of cold TCA.
(§9) Cells are fixed in situ by the gentle addition of 50 µL of cold 50% (w/v) TCA (final concentration, 10% TCA) and incubated for 60 min at 4 °C. The supernatant is discarded, and the plates are washed five times with tap water and air dried. Sulforhodamine B (SRB) solution ([…]) at 0.4% (w/v) in 1% acetic acid is added to each well, and plates are incubated for 10 min at room temperature. After staining, unbound dye is removed by washing five times with 1% acetic acid and the plates are air dried. Bound stain is subsequently solubilized with 10 mM trizma base, and the absorbance is read on an automated plate reader at a wavelength of 515 nm. For suspension cells, the methodology is […]
(§10) the same except that the assay is terminated by fixing settled cells at the bottom of the wells by gently adding 50 µl of 80% TCA (final concentration, 16% TCA). Using the seven absorbance measurements [time zero, (Tz), control growth, (C), and test growth in the presence of drug at the five concentration levels (Ti)], the percentage growth is calculated at each of the drug concentrations […]
(§11) Percentage growth inhibition is calculated as: [(Ti Tz)/(C–Tz)] x 100 for concentrations for which Ti>/=Tz and [(Ti-Tz)/Tz] x 100 for concentrations for which Ti < Tz.
(§12) Three dose response parameters are calculated for each experimental agent. Growth […]
(§13) concentration resulting in a 50% reduction in the net protein increase (as measured by SRB staining) in control cells during the drug incubation. The drug concentration resulting in total growth inhibition (TGI) is calculated from Ti = Tz. […]
(§14) reduction in the measured protein at the end of the drug treatment as compared to that at the beginning) indicating a net loss of cells following treatment is calculated from [(Ti–Tz)/Tz] x 100 =
(§15) _50. Values are calculated for each of these three parameters if the level of activity is reached; […]

A further test deals with MDA-MB-468. Kind of test: NCI 60 single concentration growth inhibition. Format: cell-based, human. The conditions noted are these: Homo sapiens, MDA-MB-468, Breast cancer, read-out: GI%. The protocol:
as §1, §2, §3, §4, §5, §6, §7, §8, §9, §10, §11, §12, §13, §14, §15

In a further test the test system is NCI-H226. Kind of test: NCI 60 single concentration growth inhibition. Conditions: Homo sapiens, NCI-H226, Non-small cell lung cancer, read-out: GI%. Format: cell-based, human. The protocol: as §1, §2, §3, §4, §5, §6, §7, §8, §9, §10, §11, §12, §13, §14, §15
The next test concerns A498. The experiment in a line: NCI 60 single concentration growth inhibition. Format: cell-based, human. Conditions: Homo sapiens, A498, Renal cancer, read-out: GI%. Here is the method:
as §1, §2, §3, §4, §5, §6, §7, §8, §9, §10, §11, §12, §13, §14, §15

For the next test, the system named is CCRF-CEM. The experiment in a line: NCI 60 single concentration growth inhibition. Format: cell-based, human. Conditions: Homo sapiens, Leukemia, read-out: GI%. The protocol:
as §1, §2, §3, §4, §5, §6, §7, §8, §9, §10, §11, §12, §13, §14, §15

For a further test, the system named is HL-60(TB). The experiment in a line: NCI 60 single concentration growth inhibition. The class given is cell-based, human. Conditions: Homo sapiens, Leukemia, read-out: GI%. Here is the method: as §1, §2, §3, §4, §5, §6, §7, §8, §9, §10, §11, §12, §13, §14, §15
For a further test, the system named is SK-MEL-28. Kind of test: NCI 60 single concentration growth inhibition. Format: cell-based, human. The conditions noted are these: Homo sapiens, SK-MEL-28, Melanoma, read-out: GI%. The protocol:
as §1, §2, §3, §4, §5, §6, §7, §8, §9, §10, §11, §12, §13, §14, §15

SMILES strings stand for the structures.

T1 sequence (P15056 whole entry): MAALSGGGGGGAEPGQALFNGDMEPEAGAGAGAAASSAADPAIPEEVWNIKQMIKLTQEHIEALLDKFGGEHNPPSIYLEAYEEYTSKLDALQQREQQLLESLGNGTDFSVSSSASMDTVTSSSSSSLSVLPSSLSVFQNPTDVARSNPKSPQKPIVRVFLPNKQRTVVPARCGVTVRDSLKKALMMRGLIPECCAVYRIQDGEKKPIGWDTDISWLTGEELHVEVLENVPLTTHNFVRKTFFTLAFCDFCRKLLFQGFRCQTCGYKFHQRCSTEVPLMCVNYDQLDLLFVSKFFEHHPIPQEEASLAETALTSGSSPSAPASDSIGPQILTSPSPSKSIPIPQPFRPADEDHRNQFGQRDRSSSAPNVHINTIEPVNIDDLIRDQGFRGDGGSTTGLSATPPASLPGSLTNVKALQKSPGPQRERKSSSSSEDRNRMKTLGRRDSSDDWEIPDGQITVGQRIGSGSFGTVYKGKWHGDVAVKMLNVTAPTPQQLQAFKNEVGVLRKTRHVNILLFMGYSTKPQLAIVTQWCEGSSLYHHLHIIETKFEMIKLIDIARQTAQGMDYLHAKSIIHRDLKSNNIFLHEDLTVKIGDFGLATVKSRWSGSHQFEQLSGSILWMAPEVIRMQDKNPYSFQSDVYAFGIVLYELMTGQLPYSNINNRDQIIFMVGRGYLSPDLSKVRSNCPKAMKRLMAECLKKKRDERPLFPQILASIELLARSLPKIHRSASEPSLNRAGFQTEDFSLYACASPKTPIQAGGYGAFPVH

As for `COc1ccc(-c2nc3cc(Cl)c(Cl)cc3n2CC(=O)NN=Cc2ccc(O)cc2)cc1` [Compound 10b, 2-(5,6-Dichloro-2-(4-methoxyphenyl)-1H-benzo[d]imidazol-1-yl)-N'-(4-hydroxybenzylidene)acetohydrazide], the inhibition at 10 µM on BRAFWT came out at 21.9 ± 1.62%; in the test with SK-OV-3 it was 24.6%; with MDA-MB-468, 90.1%; in the test on NCI-H226, 35.5%; in the test on A498 it was 25.9%; in the test on CCRF-CEM it was 25.4%. Moreover, the inhibition at 10 µM in the test with HL-60(TB) amounted to 50.7%; in the test on SK-MEL-28, 26.4%.
As to `COC(=O)COc1cccc(C=NNC(=O)Cn2c(-c3ccc(OC)cc3)nc3cc(Cl)c(Cl)cc32)c1` [Compound 10g, Methyl-2-(3-((2-(2-(5,6-dichloro-2-(4-methoxyphenyl)-1H-benzo[d]imidazol-1-yl)acetyl)hydrazono)methyl)phenoxy)acetate], the inhibition at 10 µM against BRAFWT was 39.9 ± 2.49%; in the test with SK-OV-3, less than 5%; with MDA-MB-468, 112%; in the test on NCI-H226 it was 8%; in the test with A498, less than 5%; with CCRF-CEM, 20.9%. For the same compound, the inhibition at 10 µM with HL-60(TB) and with SK-MEL-28 was less than 5% in each case.
Regarding `COc1ccc(C=NNC(=O)Cn2c(-c3ccc(OC)cc3)nc3cc(Cl)c(Cl)cc32)cc1` [Compound 10d, 2-(5,6-Dichloro-2-(4-methoxyphenyl)-1H-benzo[d]imidazol-1-yl)-N'-(4-methoxybenzylidene)acetohydrazide], the inhibition at 10 µM worked out at 52.7 ± 0.87% against BRAFWT; 30.4% with SK-OV-3; 81.8% with MDA-MB-468; 33.9% in the test with NCI-H226; 47.2% in the test on A498; 40.2% with CCRF-CEM. In addition, the inhibition at 10 µM with HL-60(TB) was determined as 40.9%; with SK-MEL-28, 33.5%.
Turning to `COc1ccc(-c2nc3cc(Cl)c(Cl)cc3n2CC(=O)NN=Cc2cccc(OCC(=O)O)c2)cc1` [Compound 10e, 2-(3-((2-(2-(5,6-Dichloro-2-(4-methoxyphenyl)-1H-benzo[d]imidazol-1-yl)acetyl)hydrazono)methyl)phenoxy)acetic acid], the inhibition at 10 µM was 28.1 ± 2.76% against BRAFWT; less than 5% with SK-OV-3; less than 5% in the test on MDA-MB-468; less than 5% in the test with NCI-H226; less than 5% in the test with A498; less than 5% in the test with CCRF-CEM. Besides, the inhibition at 10 µM in the test with HL-60(TB) and with SK-MEL-28 was less than 5% in each case.
As to `COc1ccc(-c2nc3cc(Cl)c(Cl)cc3n2CC(=O)NN=Cc2ccc(OCC(=O)O)cc2)cc1` [Compound 10f, 2-(4-((2-(2-(5,6-Dichloro-2-(4-methoxyphenyl)-1H-benzo[d]imidazol-1-yl)acetyl)hydrazono)methyl)phenoxy)acetic acid], the inhibition at 10 µM at BRAFWT was 53.15 ± 0.36%; with SK-OV-3 it was less than 5%; with MDA-MB-468, 6.38%; in the test with NCI-H226 it was less than 5%; in the test with A498, less than 5%; in the test on CCRF-CEM it was less than 5%. The inhibition at 10 µM in the test on HL-60(TB) and in the test with SK-MEL-28 was less than 5% throughout.
`COC(=O)COc1ccc(C=NNC(=O)Cn2c(-c3ccc(OC)cc3)nc3cc(Cl)c(Cl)cc32)cc1` [Compound 10h, Methyl-2-(4-((2-(2-(5,6-dichloro-2-(4-methoxyphenyl)-1H-benzo[d]imidazol-1-yl)acetyl)hydrazono)methyl)phenoxy)acetate]: the inhibition at 10 µM was 91.2 ± 6.5% on BRAFWT; less than 5% in the test with SK-OV-3; 177% with MDA-MB-468; less than 5% with NCI-H226; less than 5% in the test on A498; 28.1% in the test with CCRF-CEM. Besides, the inhibition at 10 µM in the test on HL-60(TB) was less than 5%; in the test with SK-MEL-28 it was 31.7%. Half-maximal inhibition against BRAFWT (IC50) was put at 1.72 ± 0.09 µM.
For `CCOC(=O)C(C)Oc1ccc(C=NNC(=O)Cn2c(-c3ccc(OC)cc3)nc3cc(Cl)c(Cl)cc32)cc1` (centres unmarked) [Compound 10j, Ethyl-2-(4-((2-(2-(5,6-dichloro-2-(4-methoxyphenyl)-1H-benzo[d]imidazol-1-yl)acetyl) hydrazono)methyl)phenoxy)propanoate], the inhibition at 10 µM at BRAFWT is 70.2 ± 6.16%; in the test on SK-OV-3 it was 5.5%; with MDA-MB-468 it was 43.9%; with NCI-H226, 7.33%; in the test on A498 it was less than 5%; with CCRF-CEM, 25.8%. For the same compound, the inhibition at 10 µM in the test with HL-60(TB) is 6.19%; in the test with SK-MEL-28, less than 5%.
In the case of `COc1ccc(-c2nc3cc(Cl)c(Cl)cc3n2CC(=O)NN=Cc2ccc(O)c(OC)c2)cc1` [Compound 10l, 2-(5,6-Dichloro-2-(4-methoxyphenyl)-1H-benzo[d]imidazol-1-yl)-N'-(4-hydroxy-3-methoxybenzylidene)acetohydrazide], the inhibition at 10 µM was found to be 52.3 ± 4.92% at BRAFWT; 6.44% in the test on SK-OV-3; 99% in the test with MDA-MB-468; 47.5% in the test on NCI-H226; 16.2% in the test with A498; 46.9% in the test on CCRF-CEM. Further, the inhibition at 10 µM in the test on HL-60(TB) is 44.5%; in the test on SK-MEL-28 it was 7.48%.
